Results on one compound are retold here after article PMC3200564 (European journal of nuclear medicine and molecular imaging, 2011).

One assay concerns the target TEM8 (293-TEM8 cells) (Homo sapiens, UniProt Q9H6X2). Kind of assay: biochemical. The class given is binding.
The target in assay [1] is T1, extracellular vWA domain of TEM8 (Homo sapiens, UniProt Q9H6X2).
T1 sequence (Q9H6X2 44-215 limits assumed): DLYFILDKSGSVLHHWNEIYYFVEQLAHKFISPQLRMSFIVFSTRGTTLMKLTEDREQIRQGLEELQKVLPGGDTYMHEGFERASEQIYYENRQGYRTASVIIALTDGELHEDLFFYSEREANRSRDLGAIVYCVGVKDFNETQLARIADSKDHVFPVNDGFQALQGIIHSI
Briefly: biochemical. The class given is binding.

TEM8 (293-TEM8 cells), sequence (Q9H6X2 33-564): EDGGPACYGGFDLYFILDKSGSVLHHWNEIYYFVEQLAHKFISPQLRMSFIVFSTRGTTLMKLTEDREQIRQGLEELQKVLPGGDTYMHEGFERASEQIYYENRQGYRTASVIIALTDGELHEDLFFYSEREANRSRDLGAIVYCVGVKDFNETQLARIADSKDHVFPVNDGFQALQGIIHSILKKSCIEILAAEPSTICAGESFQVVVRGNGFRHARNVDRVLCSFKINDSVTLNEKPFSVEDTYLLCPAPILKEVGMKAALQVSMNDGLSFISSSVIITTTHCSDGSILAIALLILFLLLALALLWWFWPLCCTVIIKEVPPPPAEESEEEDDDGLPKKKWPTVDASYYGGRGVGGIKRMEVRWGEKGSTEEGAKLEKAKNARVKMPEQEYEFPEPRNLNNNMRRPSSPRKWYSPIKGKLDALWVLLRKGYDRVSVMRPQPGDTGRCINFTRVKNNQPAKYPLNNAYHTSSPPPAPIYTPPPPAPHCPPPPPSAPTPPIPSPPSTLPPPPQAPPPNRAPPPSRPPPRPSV

In general, IC50 refers to the point on the concentration scale where inhibition reaches its midpoint. A high value points to weaker potency. Turning to `CC[C@H](C)[C@H](NC(=O)[C@H](Cc1ccc(O)cc1)NC(=O)[C@H](CC(C)C)NC(=O)[C@@H]1CCCN1C(=O)[C@H](CC(C)C)NC(=O)[C@H](CCCNC(=N)N)NC(=O)[C@H](CC(=O)O)NC(=O)[C@H](CC(N)=O)NC(=O)[C@H](Cc1ccc(O)cc1)NC(=O)[C@@H](N)CCCCN)C(=O)N[C@@H](CO)C(=O)N[C@@H](CC(N)=O)C(=O)N1CCC[C@H]1C(=O)O` [QQM, KYNDRLPLYISNP], the values for the IC50 (at TEM8 (293-TEM8 cells); in assay [1]) were 33 nM and 304 nM, respectively.
